Measured values taken from US12390460B2, “Treatment for obesity” (1GLOBE BIOMEDICAL CO., LTD., priority 2018, dated 2025).

How the values were obtained:
[1] = Body weight, food/water intake and adverse effects in modified high-fat diet (HFD) obese mice; format: in vivo, C57B1/6J mice
From the text: In order to assess the in vivo efficacy of Compound 14-3, a preferred embodiment of the compound of the invention, in treating and ameliorating obesity and related diseases like the metabolic syndrome, a previously used modified high-fat diet (HFD) was employed to induce obesity and severe fatty liver disease in mice (Derdak et al. J of Hepatology 2013; 58(4):785-91).
Five-week-old male, C57B1/6J mice (12-18 per group, Jackson Laboratory, Bar Harbor, ME) were fed ad libitum with a modified high-fat or control diet (Bioserv, Frenchtown, NJ) for 15 weeks. […] We had verified the efficacy of this diet to induce obesity in various pilot studies. At the end of the 15-week long feeding regimen, this diet caused substantial weight gain in these mice.
After 15 weeks on the modified HFD, the mice were put on a Compound 14-3 (or control vehicle) dosing regimen, in which the introductory 5 mg/kg (p.o., t.i.w. for the first 3 weeks) dose was followed by the administration of 10 mg/kg (p.o., t.i.w. for an additional 5 weeks) therapeutic dose. During the course of the drug treatment, the animals were monitored daily for changes in body weight, food/water intake, and any adverse effects.

[2] = tested on: intestinal fat absorption; assay: Fecal triglyceride content (biochemical kit) in HFD-fed mice; format: in vivo; conditions: 5th week of treatment, vs vehicle, FIG. 2A
Experimental: Referring to FIG. 2A, the fecal triglyceride content was assessed using a standard biochemical kit (Biovision, Mountain View, CA). Fecal samples were collected on the 5th week of the treatment over the course of three days. The fecal triglyceride content was normalized to fecal mass. […] Therefore, this mechanism cannot explain the observed significant weight loss in the drug-treated mice.

[3] = tested on: hypothalamic molecular mediators of hunger and satiety signaling (AgRP, NPY, POMC); assay: Quantitative real-time PCR of hypothalamic hunger and satiety genes; format: in vivo; conditions: HFD-fed mice, FIG. 2B
Experimental: Referring now to FIG. 2B, hypothalamic molecular mediators of hunger and satiety signaling in hypothalamus were analyzed using quantitative real-time PCR with commercially available probes (Thermo Fisher Scientific Inc., Waltham, MA). AgRP and NPY are hunger-inducing signals, while POMC is powerful satiety-inducing signal in the hypothalamus. […] This was in agreement with the food intake information that we collected over the course of the experiment. […] Therefore, it was concluded that the expression levels of hypothalamic hunger or satiety genes cannot explain the marked weight loss of the Compound-14-3-treated mice on HFD and that decrease in satiety was secondary to prolonged negative energy balance in the same group.

[4] = tested on: UCP1 and DIO2 in brown adipose tissue (BAT); assay: Quantitative real-time PCR of markers of thermogenic brown adipose tissue activation; format: in vivo; conditions: HFD-fed mice, vs vehicle; FIG. 2C
From the text: Finally, the recruitment of brown adipose tissue (BAT) was examined. BAT is a well-know site for dissipating excess energy to prevent weight gain by inducing thermogenesis. Importantly, the expression levels of the two investigated markers of thermogenic BAT activation—UCP1 and DIO2—were not different in the two HFD-fed groups when measured by quantitative real-time PCR (FIG. 2C), indicating similar levels of BAT activation in response to HFD. These findings led us to conclude that for the weigh loss seen in the Compound 14-3-treated HFD-fed mice, other mechanisms are probably responsible.

[5] = Fat pad weights at euthanasia (body composition); format: in vivo; conditions: HFD-fed mice at euthanasia
From the text: In agreement with effects of Compound 14-3 seen in the above examples, favorable changes in the body composition of Compound 14-3-treated and HFD-fed mice were also observed at the time of euthanasia through gross examination.
The former anatomical site represents visceral fat depos, while the latter belongs to subcutaneous fat depo from the perspective of human health. Both of these changes were considered very substantial and beneficial in the anti-obesity effect profile of the compound of the invention.

[6] = tested on: white adipose tissue adipocytes; assay: H & E staining and morphometry of eWAT and iWAT adipocytes; format: in vivo; conditions: HFD-fed mice
[7] = tested on: FGF21; assay: Serum FGF21 (ELISA) and FGF21 gene expression; format: in vivo; conditions: HFD-fed mice
From the text: Many of the beneficial metabolic effect are linked to FGF21, and FGF21 itself may further enhance fatty acid oxidation (Xu J, et al. Diabetes (2009) 58(1):250-259; Li H, et al. Diabetes (2012) 61(4):797-806). We, therefore, also measured serum levels of FGF21 using a commercially available ELISA kit. […] Accordingly, in an aspect of the invention, Compound 14-3 treatment is utilized to increase fatty acid oxidation, resulting in decreased fat content in iWAT and eWAT, and decreased body weight in a subject.

[8] = tested on: leptin; assay: Serum leptin (ELISA); format: in vivo; conditions: HFD-fed mice, FIG. 7C
From the text: Since crosstalk between leptin and FGF21 has been proposed in connection with the anti-obesity effects of FGF21 and a suppressive effect of exogenous FGF21 on circulating leptin levels has been previously observed in non-human primates, we also measured serum leptin levels using a commercially available ELISA kit. As expected, changes in fat content in the Compound 14-3-treated HFD group were followed by decrease in serum levels of fat-derived ‘satiety’ hormone leptin, indicating improved leptin resistance resulting from treatment using a compound of the invention (FIG. 7C). Thus, lower circulation levels of leptin were most likely due to drug-induced reductions in the masses of fat depos. This finding can explain decrease in POMC gene expression in the hypothalamus, as leptin is capable to directly modulate hypothalamic melanocortin system by changing the activity of POMC neurons.

[9] = tested on: liver; assay: Liver size, appearance and liver/body weight ratio (NAFLD) in HFD-fed mice; format: in vivo
From the text: The enlarged liver appeared pale yellow consistent with fatty metamorphosis. […] The beneficial effect on liver size and appearance was consistent as a part of overall improvement in metabolic properties after Compound 14-3 treatment.

[10] = tested on: human HepG2 liver cells; assay: Intracellular triglyceride content in HepG2 cells with palmitoleic acid (biochemical kit); format: cell-based; conditions: HepG2, 1.6 mM palmitoleic acid, 48 hours, 0.1 μM compound, vs DMSO; FIG. 10A
Experimental: A series of in vitro experiments were first carried out with various human hepatocyte cultures. For example, human HepG2 liver cells were incubated with 1.6 mM palmitoleic acid in EMEM medium for 48 hours in the presence of 0.1 μM Compound 14-3 or control vehicle, DMSO. After 48 hours, cells were collected and the intracellular triglyceride content was measured by a biochemical kit (Biovision, Mountain View, CA) as described in Derdak et al. J Hepatol. 2013; 58(4):785-91.

[11] = mice, 5 then 10 mg/kg p.o. t.i.w.

CCN(CC)CCNC(=O)c1c(C)[nH]c(/C=C2\C(=O)Nc3ccc(-c4csc(-c5ccccc5)n4)cc32)c1C [Compound 14-3]
daily normalized caloric (food) intake ([1]; HFD-fed mice during treatment, FIG. 1C): not linked to decreased food intake
daily normalized water intake ([1]; HFD-fed mice during treatment, FIG. 1D): not linked to decreased
change in body weight during treatment ([1]; HFD-fed mice, 5 mg/kg p.o. t.i.w. 3 weeks then 10 mg/kg p.o. t.i.w. 5 weeks, FIG. 1A): not only prevented additional weight gain in the mice on HFD, but also triggered a gradual weight loss
difference in body weight vs control-vehicle-treated mice on HFD at the time of euthanasia ([1]; HFD-fed mice, 5 then 10 mg/kg p.o. t.i.w., 8 weeks, FIG. 1B): ~20%
behaviors or activities [1, 11]: No changes in behaviors or activities were observed
side effects [1, 11]: temporary, self-resolving, mild diarrhea seen in a couple of mice at the initiation of drug treatment
fecal triglyceride content normalized to fecal mass [2]: little difference
satiety-inducing POMC expression in hypothalamus ([3]; vs corresponding control group): significant decrease
expression of appetite-inducing genes (AgRP, NPY) in hypothalamus ([3]; vs vehicle): no significant difference
DIO2 expression level in BAT [4]: not different
UCP1 expression level in BAT [4]: not different
epididymal fat pad weights ([5]; FIG. 3A): markedly decreased
epididymal fat/body weight ratio ([5]; FIG. 3B): markedly decreased
unilateral (inguinal) fat pad weights ([5]; FIG. 3C): markedly decreased
inguinal fat/body weight ratio ([5]; FIG. 3D): markedly decreased
size of eWAT adipocytes ([6]; H & E staining of eWAT, FIG. 4A-4B): decrease in the size of adipocytes
size of iWAT adipocytes ([6]; H & E staining of iWAT, morphometry, FIG. 5A-5B): decrease in size of adipocytes
serum FGF21 levels ([7]; ELISA, FIG. 7A): increased
FGF21 gene expression ([7]; FIG. 7B): increased
serum leptin levels [8]: decrease
NAFLD ([9]; FIG. 8A): marked improvement
size of the liver ([9]; FIG. 8A): markedly decreased
liver/body weight ratio ([9]; FIG. 8B): lower
palmitoleic acid-induced increase of intracellular triglyceride content [10]: markedly suppressed
